From US20230265116A1, “DEGRADATION OF (EGFR) BY CONJUGATION OF EGFR INHIBITORS WITH E3 LIGASE LIGAND AND METHODS OF USE” (BEIGENE, LTD., priority 2020, published 2023) come the findings set out here.

Where two headings read alike, the source gives them in different places.

Experiment [1] has as its system EGFR Del19/T790M/C797S (H1975-clone #28). The experiment in a line: EGFR degradation HTRF assay, H1975-clone #28 DTC cells. The class given is cell-based. The gist of the method:
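The test uses H1975 clonal lines carrying lentiviral mutant EGFR with endogenous copies removed, treated 16h at 37° C., 5% CO2. EGFR left in the lysate is quantified by HTRF, and DC50 is derived from an 8-dose curve starting at 10 uM final.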

In experiment [2] the target is T1, EGFR L858R/T790M/C797S (BaF3-LTC cells) (Homo sapiens, UniProt P00533, C797S/L858R/T790M).
T1 construct: expressed in transfected cells; host or cells: BaF3
T1 sequence (P00533 25-1210 T790M/C797S/L858R): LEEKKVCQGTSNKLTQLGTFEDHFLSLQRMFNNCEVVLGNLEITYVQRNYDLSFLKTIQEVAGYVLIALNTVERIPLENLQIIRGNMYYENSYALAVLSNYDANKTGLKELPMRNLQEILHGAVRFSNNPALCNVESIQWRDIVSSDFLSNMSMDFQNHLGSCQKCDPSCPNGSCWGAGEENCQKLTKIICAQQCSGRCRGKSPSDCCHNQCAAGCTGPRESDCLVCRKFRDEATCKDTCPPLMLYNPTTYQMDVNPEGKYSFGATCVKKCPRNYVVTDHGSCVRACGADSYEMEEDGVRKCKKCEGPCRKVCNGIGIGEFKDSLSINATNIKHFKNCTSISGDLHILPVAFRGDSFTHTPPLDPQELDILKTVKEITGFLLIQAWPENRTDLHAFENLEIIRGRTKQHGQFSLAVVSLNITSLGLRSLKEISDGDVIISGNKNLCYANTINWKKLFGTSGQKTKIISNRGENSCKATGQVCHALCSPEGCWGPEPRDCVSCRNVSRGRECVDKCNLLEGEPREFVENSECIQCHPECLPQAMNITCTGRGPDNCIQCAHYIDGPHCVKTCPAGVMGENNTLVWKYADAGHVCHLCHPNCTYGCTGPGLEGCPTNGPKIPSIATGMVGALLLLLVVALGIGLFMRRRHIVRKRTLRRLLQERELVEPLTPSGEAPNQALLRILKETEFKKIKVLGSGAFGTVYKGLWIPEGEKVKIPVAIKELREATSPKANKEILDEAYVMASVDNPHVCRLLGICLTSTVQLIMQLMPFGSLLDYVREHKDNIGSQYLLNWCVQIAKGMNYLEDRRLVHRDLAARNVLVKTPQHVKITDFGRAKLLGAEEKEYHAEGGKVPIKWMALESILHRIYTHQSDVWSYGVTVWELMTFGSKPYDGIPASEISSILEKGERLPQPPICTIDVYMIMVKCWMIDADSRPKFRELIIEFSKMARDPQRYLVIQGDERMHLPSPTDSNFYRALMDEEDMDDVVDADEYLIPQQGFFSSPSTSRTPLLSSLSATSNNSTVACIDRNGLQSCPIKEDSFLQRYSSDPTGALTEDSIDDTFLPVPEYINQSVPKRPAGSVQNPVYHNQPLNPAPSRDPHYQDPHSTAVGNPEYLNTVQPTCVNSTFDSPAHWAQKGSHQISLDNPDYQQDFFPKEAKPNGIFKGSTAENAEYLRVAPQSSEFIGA
The experiment in a line: EGFR degradation HTRF assay, BaF3-LTC cells. The class given is cell-based. In a few lines: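 Cells treated 16 h at 37 °C, 5% CO2 in medium with 0.2% DMSO; top final concentration 10 uM, 5-fold dilution, 8 doses. Lysates read by HTRF (665/620 nm); degradation % versus DMSO high control, DC50 from four-parameter fit, Dmax as maximal degradation.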

[3] abbreviates: H1975 # 28 DTC cells; EGFR degradation, IC50 (DC50) from curve fit; read-out: DC50(nM) H1975 # 28 DTC.
[4] abbreviates: H1975 # 28 DTC cells; maximum percentage of inhibition (degradation).
Where [5] appears, read: BaF3-LTC cells; EGFR degradation, IC50 (DC50) from curve fit; read-out: DC50(nM) BaF3-LTC.
Setting [6] is: BaF3-LTC cells; maximum percentage of inhibition (degradation); read-out: Dmax (%) BaF3-LTC.
[7] abbreviates: read-out: DC50(nM) H1975 # 28 DTC; H1975 # 28 DTC cells; EGFR degradation, IC50 (DC50) from curve fit.
The mark [8] stands for this setting: BaF3-LTC cells; maximum percentage of inhibition (degradation).
Setting [9] is: read-out: DC50(nM) BaF3-LTC; BaF3-LTC cells; EGFR degradation, IC50 (DC50) from curve fit.

`COc1cc(N2CCC(N3CC(C(=O)N4CCC(c5cc(F)c(C6CCC(=O)NC6=O)c(F)c5)CC4)C3)CC2)c(C)cc1Nc1ncc(Br)c(Nc2ccc3nc(C)ccc3c2P(C)(C)=O)n1` (stereo not shown) [Example 687, 3-(4-(1-(1-(1-(4-((5-bromo-4-((5-(dimethylphosphoryl)-2-methylquinolin-6-yl)amino)pyrimidin-2-yl)amino)-5-methoxy-2-methylphenyl)piperidin-4-yl)azetidine-3-carbonyl)piperidin-4-yl)-2,6-difluorophenyl)piperidine-2,6-dione]: the DC50 in experiment [1] (setting [3]) was 1.38 nM; in experiment [2] (setting [5]), 14.8 nM. In addition, the “Dmax (%) H1975 # 28 DTC” value in experiment [1] (setting [4]) came to 68.75%. Also, the Dmax in experiment [2] (setting [6]) amounted to 93.3%.
`CCOc1cc(N2CCC(N3CCN(CCc4cc(F)c([C@H]5CCC(=O)NC5=O)c(F)c4)CC3)CC2)c(CC)cc1Nc1ncc(Br)c(Nc2ccc3nc(C)ncc3c2P(C)(C)=O)n1` [Example 738, (R)-3-(4-(2-(4-(1-(4-((5-bromo-4-((5-(dimethylphosphoryl)-2-methylquinazolin-6-yl)amino)pyrimidin-2-yl)amino)-5-ethoxy-2-ethylphenyl)piperidin-4-yl)piperazin-1-yl)ethyl)-2,6-difluorophenyl)piperidine-2,6-dione]: the DC50 is 0.64 nM in experiment [1] (setting [3]) and 6.73 nM in experiment [2] (setting [5]). Besides, the “Dmax (%) H1975 # 28 DTC” value in experiment [1] (setting [4]) was 84.3%.
`CCc1cc(Nc2ncc(Br)c(Nc3ccc4nc(C)ccc4c3P(C)(C)=O)n2)c(OC)cc1N1CCC(N2CCN(C(=O)Cc3cccc4c3n(C)c(=O)n4C3CCC(=O)NC3=O)CC2)CC1` (stereo not shown) [Example 697, 3-(4-(2-(4-(1-(4-((5-bromo-4-((5-(dimethylphosphoryl)-2-methylquinolin-6-yl)amino)pyrimidin-2-yl)amino)-2-ethyl-5-methoxyphenyl)piperidin-4-yl)piperazin-1-yl)-2-oxoethyl)-3-methyl-2-oxo-2,3-dihydro-1H-benzo[d]imidazol-1-yl)piperidine-2,6-dione]: the DC50 in experiment [1] (setting [3]) turned out to be 1.19 nM; in experiment [2] (setting [5]) it was 9.65 nM. The “Dmax (%) H1975 # 28 DTC” value in experiment [1] (setting [4]) is given as 71.39%. Besides, the greatest degradation seen (Dmax) in experiment [2] (setting [6]) is 94.1%.
Take `CCc1ccc2c(P(C)(C)=O)c(Nc3nc(Nc4cc(CC)c(N5CCC(N6CCN(CCc7cc8oc(=O)n(C9CCC(=O)NC9=O)c8cc7F)CC6)CC5)cc4OC)ncc3Br)ccc2n1` (stereo not shown) [Example 457, 3-(6-(2-(4-(1-(4-((5-bromo-4-((5-(dimethylphosphoryl)-2-ethylquinolin-6-yl)amino)pyrimidin-2-yl)amino)-2-ethyl-5-methoxyphenyl)piperidin-4-yl)piperazin-1-yl)ethyl)-5-fluoro-2-oxobenzo[d]oxazol-3(2H)-yl)piperidine-2,6-dione]: the half-maximal degradation concentration (DC50) was 0.655 nM in experiment [1] (setting [3]) and 3.25 nM in experiment [2] (setting [5]). Besides, the “Dmax (%) H1975 # 28 DTC” value in experiment [1] (setting [4]) amounted to 74.18%. For the same molecule, the Dmax in experiment [2] (setting [6]) came out at 92.5%.
Consider `CCOc1cc(N2CCC(N3CCN(C(=O)[C@@H]4CCN(c5cccc6c5oc(=O)n6C5CCC(=O)NC5=O)C4)CC3)CC2)c(CC)cc1Nc1ncc(Br)c(Nc2ccc3nc(CC)ccc3c2P(C)(C)=O)n1` (stereo partly drawn) [Example 478, 3-(7-((R)-3-(4-(1-(4-((5-bromo-4-((5-(dimethylphosphoryl)-2-ethylquinolin-6-yl)amino)pyrimidin-2-yl)amino)-5-ethoxy-2-ethylphenyl)piperidin-4-yl)piperazine-1-carbonyl)pyrrolidin-1-yl)-2-oxobenzo[d]oxazol-3(2H)-yl)piperidine-2,6-dione], for which the “Dmax (%) H1975 # 28 DTC” value in experiment [1] (setting [4]) is recorded as 80.49%. The 50% degradation concentration (DC50) in experiment [1] (setting [7]) turned out to be 0.645 nM; in experiment [2] (setting [9]) it was 3.05 nM. For the same molecule, the “Dmax (%) BaF3-LTC” value in experiment [2] (setting [8]) is 88.22%.
On to `CCOc1cc(N2CCC(N3CCN(CCc4cccc5c4oc(=O)n5C4CCC(=O)NC4=O)CC3)CC2)c(CC)cc1Nc1ncc(Br)c(Nc2ccc3c(=O)n(CC)ncc3c2P(C)(C)=O)n1` (stereo not shown) [Example 644, 3-(7-(2-(4-(1-(4-((5-bromo-4-((5-(dimethylphosphoryl)-2-ethyl-1-oxo-1,2-dihydrophthalazin-6-yl)amino)pyrimidin-2-yl)amino)-5-ethoxy-2-ethylphenyl)piperidin-4-yl)piperazin-1-yl)ethyl)-2-oxobenzo[d]oxazol-3(2H)-yl)piperidine-2,6-dione], for which the DC50 came out at 0.829 nM in experiment [1] (setting [3]) and 5.12 nM in experiment [2] (setting [5]). For the same molecule, in experiment [1] (setting [4]), the “Dmax (%) H1975 # 28 DTC” value is listed as 86.29%. Moreover, the Dmax in experiment [2] (setting [6]) was 92.6%.
`CCc1cc(Nc2ncc(Br)c(Nc3ccc4nc(C5CC5)ccc4c3P(C)(C)=O)n2)c(OC)cc1N1CCC(N2CCN(CCc3cc(F)c([C@H]4CCC(=O)NC4=O)c(F)c3)CC2)CC1` [Example 741, (R)-3-(4-(2-(4-(1-(4-((5-bromo-4-((2-cyclopropyl-5-(dimethylphosphoryl)quinolin-6-yl)amino)pyrimidin-2-yl)amino)-2-ethyl-5-methoxyphenyl)piperidin-4-yl)piperazin-1-yl)ethyl)-2,6-difluorophenyl)piperidine-2,6-dione]: the DC50 turned out to be 0.761 nM in experiment [1] (setting [3]) and 11.2 nM in experiment [2] (setting [5]). Besides, the “Dmax (%) H1975 # 28 DTC” value in experiment [1] (setting [4]) turned out to be 80.67%.
As for `CCOc1cc(N2CCC(N3CCN(CCc4c(F)ccc5c4oc(=O)n5C4CCC(=O)NC4=O)CC3)CC2)c(CC)cc1Nc1ncc(Br)c(Nc2cc(F)c3nc(CC)ccc3c2P(C)(C)=O)n1` (stereo not shown) [Example 614, 3-(7-(2-(4-(1-(4-((5-bromo-4-((5-(dimethylphosphoryl)-2-ethyl-8-fluoroquinolin-6-yl)amino)pyrimidin-2-yl)amino)-5-ethoxy-2-ethylphenyl)piperidin-4-yl)piperazin-1-yl)ethyl)-6-fluoro-2-oxobenzo[d]oxazol-3(2H)-yl)piperidine-2,6-dione], the DC50 in experiment [1] (setting [3]) was 2.61 nM; in experiment [2] (setting [5]) it was 23.8 nM. Further, the “Dmax (%) H1975 # 28 DTC” value in experiment [1] (setting [4]) was found to be 74%. Besides, the “Dmax (%) BaF3-LTC” value in experiment [2] (setting [8]) is reported as 80.74%.
Consider `CCOc1cc(N2CCC(N3CCN(CCOCCc4cccc5c4oc(=O)n5C4CCC(=O)NC4=O)CC3)CC2)c(CC)cc1Nc1ncc(Br)c(Nc2ccc3nc(CC)ccc3c2P(C)(C)=O)n1` (stereo not shown) [Example 619, 3-(7-(2-(2-(4-(1-(4-((5-bromo-4-((5-(dimethylphosphoryl)-2-ethylquinolin-6-yl)amino)pyrimidin-2-yl)amino)-5-ethoxy-2-ethylphenyl)piperidin-4-yl)piperazin-1-yl)ethoxy)ethyl)-2-oxobenzod[d]oxazol-3(2H)-yl)piperidine-2,6-dione], for which the DC50 worked out at 0.91 nM in experiment [1] (setting [3]) and 11.2 nM in experiment [2] (setting [5]). Besides, the “Dmax (%) H1975 # 28 DTC” value in experiment [1] (setting [4]) was found to be 62.88%. The Dmax in experiment [2] (setting [6]) worked out at 92.1%.
Take `CCOc1cc(N2CCC(N3CCN(CCc4c(F)cc5c(oc(=O)n5C5CCC(=O)NC5=O)c4F)CC3)CC2)c(CC)cc1Nc1ncc(Br)c(Nc2ccc3nc(CC)ccc3c2P(C)(C)=O)n1` (stereo not shown) [Example 635, 3-(6-(2-(4-(1-(4-((5-bromo-4-((5-(dimethylphosphoryl)-2-ethylquinolin-6-yl)amino)pyrimidin-2-yl)amino)-5-ethoxy-2-ethylphenyl)piperidin-4-yl)piperazin-1-yl)ethyl)-5,7-difluoro-2-oxobenzo[d]oxazol-3(2H)-yl)piperidine-2,6-dione]: the values for the DC50 in experiment [1] (setting [3]) and in experiment [2] (setting [5]) were 1.37 nM and 11 nM, respectively. Also, the “Dmax (%) H1975 # 28 DTC” value in experiment [1] (setting [4]) turned out to be 77.57%. Moreover, in experiment [2] (setting [6]), the Dmax came out at 90.7%.
`CCc1ccc2c(P(C)(C)=O)c(Nc3nc(Nc4cc(CC)c(N5CCC(N6CCN(C(=O)C7CN(c8cc(F)cc9c8oc(=O)n9C8CCC(=O)NC8=O)C7)CC6)CC5)cc4OC)ncc3Br)ccc2n1` (stereo not shown) [Example 447, 3-(7-(3-(4-(1-(4-((5-bromo-4-((5-(dimethylphosphoryl)-2-ethylquinolin-6-yl)amino)pyrimidin-2-yl)amino)-2-ethyl-5-methoxyphenyl)piperidin-4-yl)piperazine-1-carbonyl)azetidin-1-yl)-5-fluoro-2-oxobenzo[d]oxazol-3(2H)-yl)piperidine-2,6-dione]: the “Dmax (%) H1975 # 28 DTC” value in experiment [1] (setting [4]) is listed as 77.96%. Also, the DC50 in experiment [1] (setting [7]) was found to be 0.526 nM; in experiment [2] (setting [9]), 2.27 nM. For the same molecule, in experiment [2] (read-out: Dmax (%) BaF3-LTC, BaF3-LTC cells; maximum percentage of inhibition (degradation)), the Dmax stood at 83.2%.
As for `CCc1cc(Nc2ncc(Br)c(Nc3ccc4cc(C)ncc4c3P(C)(C)=O)n2)c(OC)cc1N1CCC(N2CCN(C(=O)[C@@H]3CCN(c4cc(F)c([C@H]5CCC(=O)NC5=O)c(F)c4)C3)CC2)CC1` [Example 586, (R)-3-(4-((R)-3-(4-(1-(4-((5-bromo-4-((8-(dimethylphosphoryl)-3-methylisoquinolin-7-yl)amino)pyrimidin-2-yl)amino)-2-ethyl-5-methoxyphenyl)piperidin-4-yl)piperazine-1-carbonyl)pyrrolidin-1-yl)-2,6-difluorophenyl)piperidine-2,6-dione], the DC50 in experiment [1] (setting [3]) turned out to be 0.958 nM; in experiment [2] (setting [5]), 3.85 nM. For the same molecule, the “Dmax (%) H1975 # 28 DTC” value in experiment [1] (setting [4]) came to 84.73%. Further, the Dmax in experiment [2] (setting [6]) was 94.1%.
